SMILES strings stand for the structures. Where two headings read alike, the source gives them in different places.

Data set [1] deals with yeast Saccharomyces cerevisiae. The method, then: A spruce slurry was prepared an subjected to acidic hydrolysis as described in Example 6. […] Sodium dithionite was added to different samples to concentrations of 2.5, 5, 7.5, 10, 12.5, and 15 mM. The treatments were performed at 21° C. for 5 min with stirring. In addition, treatments with 0.1% (7.9 mM) and 1% (79.3 mM) sodium sulphite were performed. […] Furthermore, a sugar solution (glucose 18 g/L, mannose 14 g/L) was prepared to evaluate if the effect of the sodium dithionite treatment was due to an effect on the hydrolysate or the ethanolic fermentation with yeast. Half of the sugar solution was treated with 10 mM sodium dithionite, whereas the rest was left untreated as a reference. The volumes of treated and untreated samples were equalized with water and the pH was adjusted to pH 5.5 prior to the fermentation. Fermentation was performed with the yeast Saccharomyces cerevisiae as described in the previous Examples.
Spruce hydrolysate samples were prepared as in Example 6.
Two samples were treated with DTT to 2 and 20 mM, respectively, two samples were treated with ascorbic acid to 10 and 100 mM, respectively and two samples were treated with glutathione to 1 and 10 mM, respectively.
The treatment time was 3 h for all samples and fermentation was performed as described in the previous Examples.

The subject of data set [2] is baker's yeast (Saccharomyces cerevisiae). Format: cell-based. The note with it: NH4OH detoxification. How it is done:
The pH of the sugarcane bagass and spruce hydrolysates were adjusted to 5.5 with a 5 M solution of sodium hydroxide. The conditioning of each hydrolysate was performed in eight 100-mL glass vessels equipped with magnetic stirrer bars. 26 mL hydrolysate was added to all vessels, and the vessels were placed on a magnetic stirrer plate (IKA-Werke, Staufen, Germany). Sodium dithionite (chemical grade; >87%, Merck, Darmstadt, Germany) was added to hydrolysates in the concentrations 5 and 10 mM. Additions of sodium sulphite to 5 and 10 mM were also performed. The additions were made at room temperature (23° C.) and the samples were kept for 10 min with stirring. The experiments were performed in duplicates.
The efficiency of the additions of the reducing agents was compared with alkali detoxification.
Ethanol measurements were performed by using an enzymatic kit (Ethanol UV-method, Boehringer Mannheim GmbH, Mannheim, Germany). Fermentation experiments were performed to evaluate the effectiveness of the additions and treatments. For comparison, untreated hydrolysates were included in the fermentation experiments as well as reference fermentations of sugar-based medium with an amount of fermentable sugars (i.e. glucose and mannose) corresponding to that in the hydrolysate samples. The fermentations were carried out using baker's yeast (Saccharomyces cerevisiae) (Jästbolaget AB, Rotebro, Sweden). The yeast inoculum was prepared in 750-mL cotton-plugged shake flasks with 300 mL YEPD medium ([…], 2% D-glucose). The flasks were inoculated and incubated with agitation at 30° C. for approximately 12 h. The cells were harvested in the late exponential growth phase by centrifugation (Hermla Z206A, Hermle Labortechnik GmbH, Wehingen, Germany) at 1,500 g for 5 min. The cells were resuspended in an appropriate amount of sterile water to achieve an inoculum consisting of 2.0 g/L (cell dry weight) in all fermentation vessels. The fermentation was carried out in 14 25-mL glass flasks equipped with magnets for stirring and sealed with rubber plugs pierced with cannulas for letting out carbon dioxide. The hydrolysate samples (23.75 mL), or alternatively the sugar solution for reference fermentations, were added to the fermentation flasks along with 0.5 mL of a nutrient solution (150 g/L yeast extract, 75 g/L (NH4)2HPO4, 3.75 g/L MgSO4.7 H2O, 238.2 g/L NaH2PO4.H2O), and 0.75 mL of yeast inoculum. The flasks were incubated at 30° C. in a water bath with magnetic stirring (IKA-Werke). Samples for measurement of sugars and ethanol were withdrawn during the fermentation. The glucose levels during the fermentation were estimated by using a glucometer (Glucometer Elite XL, Bayer AG, Leverkusen, Germany).

`O[C@H](CS)[C@H](O)CS` (racemic) [DTT, Dithiothreitol]: the Fermentability result in data set [1] (acid spruce hydrolysate, 20 mM, treatment time 3 h) is reported as “improved fermentability”. In data set [1] (acid spruce hydrolysate, 20 mM, treatment time 3 h, FIG. 13), the “Glucose consumption rate compared with the untreated sample” value was “higher glucose consumption rate”.
In the case of `N` [NH4OH, ammonium hydroxide, reference compound], the Yield in data set [2] (bagass hydrolysate, 6 h fermentation) is 0.34 g EtOH/g consumed glucose & mannose; in data set [2] (spruce hydrolysate, 14 h fermentation) it was 0.43 g EtOH/g consumed glucose & mannose; in data set [1] (NH4OH treatment, 2.75 h), 0.30 g EtOH/g consumed glucose and mannose; in data set [1] (NH4OH treatment, 4.25 h), 0.42 g EtOH/g consumed glucose and mannose; in data set [1] (NH4OH treatment, 6.25 h), 0.32 g EtOH/g consumed glucose and mannose; in data set [1] (NH4OH treatment, 9.25 h), 0.47 g EtOH/g consumed glucose and mannose. In addition, the Ethanol concentration in data set [1] (NH4OH treatment, 2.75 h) is listed as 4.56 g/L; in data set [1] (NH4OH treatment, 4.25 h) it was 10.75 g/L; in data set [1] (NH4OH treatment, 6.25 h) it was 9.81 g/L; in data set [1] (NH4OH treatment, 9.25 h) it was 14.08 g/L. Further, the Productivity turned out to be 1.66 g EtOH × L^−1 × h^−1 in data set [1] (NH4OH treatment, 2.75 h); 2.53 g EtOH × L^−1 × h^−1 in data set [1] (NH4OH treatment, 4.25 h); 1.57 g EtOH × L^−1 × h^−1 in data set [1] (NH4OH treatment, 6.25 h); 1.52 g EtOH × L^−1 × h^−1 in data set [1] (NH4OH treatment, 9.25 h). Besides, the Viable cells in data set [1] (acid spruce hydrolysate, NH4OH treatment, fermentation time 2.25 h) was found to be 95.3 ± 3.0%.
Take `O=C1O[C@H]([C@@H](O)CO)C(O)=C1O` [ascorbic acid]: the Fermentability entry in data set [1] (acid spruce hydrolysate, 100 mM, treatment time 3 h) is reported as “improved fermentability”.
On to `N[C@@H](CCC(=O)N[C@@H](CS)C(=O)NCC(=O)O)C(=O)O` [glutathione, reduced glutathione], for which the Fermentability result in data set [1] (acid spruce hydrolysate, 10 mM, treatment time 3 h) is on record as “improved fermentability”.

These data come from patent US8815499B2, “In situ detoxification of fermentation inhibitors with reducing agents” (priority 2009, dated 2014).
